PMC11206778, “Preclinical Pharmacokinetic Study and Lung Penetration of a Coumarin Extracted from Zanthoxylum tingoassuiba” (Pharmaceutics, 2024)
Read-outs that look alike come from different tables or passages of the source. Each block holds one compound with its values, some of them ahead of it.

Columns and labels:
[1] = Plasma pharmacokinetics study in mice (non-compartmental analysis, HPLC-DAD); type: in vivo, Balb/c mice; details: mean ± SD; for k el: read-out: ke (converted)
Protocol: The pharmacokinetic analysis was carried out with Balb/c mice (~30 g) obtained from the Animal Facilities at Oswaldo Cruz Foundation (Fiocruz, Bahia, Brazil) and kept in a room with environmental control (22 ± 2 °C and 12:12 h light–dark cycle), and with free access to water and food until the day of the experiment. Animal care and handling procedures were in strict accordance with the recommendations in the Guide for the Care and Use of Laboratory Animals of the National Institute of Health and the Brazilian College of Animal Experimentation. The protocol was approved by the Institutional Animal Care and Use Committee of FIOCRUZ (CEUA/FIOCRUZ, permit number: L-IGM-013/2021).
The compound was administered to the mice (n = 3 per time point) by inhalation and intravenous routes at 50 and 15 mg/kg, respectively. The intravenous administration was conducted through the lateral tail vein, and the inhalation dosing was conducted using inhalation exposure chambers. The nebulizer device was operated according to the manufacturer’s specifications. The blood samples were collected 0.083, 0.25, 0.5, 0.75, 1, 2, and 4 h after both administrations. The blood samples were centrifuged for plasma separation (6000 rpm, 10 min, 8 °C) and stored at −18 °C until analysis.
The non-compartmental pharmacokinetic parameters of both studies were estimated using PKanalix® Suite 2020R1 software (Lixoft®, Antony, France). The determined PK parameters included the elimination rate constant (ke), the elimination half-life (t1/2), the area under the concentration–time curve (AUC) calculated by the linear trapezoidal rule, the mean residence time (MRT), the total clearance (CL), and the volume of distribution (Vd).

[2] = Lung distribution in mice (AUC lung/AUC plasma ratio); type: in vivo; details: male, Balb/c, mouse, read-out: Lung penetration factor (AUC inf lung/AUC inf plasma)
Protocol: The lung distribution experiment used Male Balb/c (~30 g). After intravenous bolus and inhalation administration of 15 mg/kg and 50 mg/kg, respectively, of 6-methoxyseselin, three animals were sacrificed at 0.5 h, 1 h, 2 h, and 4 h, each. The lung samples were removed, gently blotted dry, weighed, and frozen at −80 °C until processing. On the day of the analysis, tissue samples were allowed to thaw and were weighed, and 2 mL of methanol was added per gram of tissue. The tissues were homogenized for approximately 5 min, and the homogenates were then transferred to Eppendorf® tubes and centrifuged at 3500× g for 15 min at 4 °C. A volume of supernatant was then processed similarly to the plasma samples and analyzed by HPLC-DAD. The lung penetration was calculated using the AUC lung/AUC plasma ratio. The trapezoidal method was used to estimate both AUCs.

[3] = Long-term stability in mice plasma stored at −18 °C; type: in vitro ADME
Protocol: Stability assays were performed in triplicate with the QC samples (LQC and HQC) by adding 6-methoxyseselin to mice plasma. The stability after 30, 45, and 60 days was performed with samples stored at −18 °C. 6-methoxyseselin was considered stable in plasma for the period evaluated when the accuracy was within acceptable limits (RSE within ±15%).

[4] = system: arteries isolated from rats; design: method as in PMID 31711783, PMID 37149230; details: cited from earlier work
[5] = cited from earlier work
[6] = Balb/c, mouse, inhaled or intranasal, inhalation 50 mg/kg
[7] = Balb/c, mouse, intravenous 15 mg/kg

MRT [1, 6]: 5.4 ± 2.1 h
half-life [1, 6]: 3.3 ± 0.86 h
k el [1, 6]: 5.83e-05 s⁻¹
MRT [1, 7]: 3.23 ± 1.57 h
clearance [1, 7]: 5.32 L/h/kg
half-life [1, 7]: 2.6 ± 0.73 h
Vd ([1]; Balb/c, mouse, intravenous 15 mg/kg, read-out: Vd): 19.6 ± 1.57 L/kg
k el [1, 7]: 7.5e-05 s⁻¹
Cl ([1]; inhalation 50 mg/kg): 6.59 ± 2.34 L/h/kg
Vd ([1]; inhalation 50 mg/kg): 18.79 ± 2.58 L/kg
Kp ([2]; inhaled, inhalation 50 mg/kg): 2.14
Kp ([2]; intravenous 15 mg/kg): 1.45
Stability in storage (verdict) ([3]; 60 days): unstable
Stability in storage (verdict) ([3]; until day 30): stable
Structure (SMILES): COc1cc2ccc(=O)oc2c2c1OC(C)(C)C=C2 [6-methoxyseselin]
Vasorelaxation [4]: potent vasorelaxation

Structure (SMILES): CCCC1O[C@@H]2C[C@H]3[C@@H]4CCC5=CC(=O)C=C[C@]5(C)[C@H]4[C@@H](O)C[C@]3(C)[C@]2(C(=O)CO)O1 (stereo partly drawn) [budesonide]
half-life [5]: 2 to 3.6 h
Vd ([5]; reference not given, ref 22 follows in the same paragraph): 2.2 to 3.9 L/kg

Structure (SMILES): CC(C)(C)NCC(O)c1ccc(O)c(CO)c1 (stereo not drawn) [salbutamol]
Vd [5]: 3 to 4 L/kg
